According to patent US20140094424A1, “MICROBICIDAL COMPOSITIONS AND METHODS OF PRODUCTION USE THEREOF” (priority 2011, published 2014):

Legend:
[1] = system: Penicillium notatum-KMO (R); assay: MBC (minimum bactericidal concentration) test in Wash NEXT reagent; format: cell-based; set-up: key to MBC test growth score: number = actual colony count; + full mat, − no growth
Experimental: The stock organisms were thawed and subbed prior to beginning the MBC test. Molds were subbed to SDA plates one week before, and the bacteria were subbed to TAT agar plates 24 hours prior to the start of the test. All plates were incubated at 32 degrees C.
For the molds, each organism was inoculated into 40 ml sterile saline in a centrifuge tube to create a density of MacFarland #5. Two serial dilutions of 1:100 were then made, resulting in 10^−2 and 10^−4 concentrations. Each dilution was vortexed before it was sampled, and sterile Eppendorf pipette tips were used to make each transfer. The 10^−4 dilution was spiral plated to yield the initial inoculum concentration.
MBC trays were set up with the prepared test reagent. Using a Matrix pipettor, 100 μl aliquots of reagent were distributed into the wells, diluting the amount of preservative from 100% to 10% increments, using unpreserved reagent as the diluent. In one row, 100% non-preserved reagent acted as a positive control and served as a benchmark for a full mat of growth. In well #12H, 100 μl unpreserved reagent was pipetted, and this well was not inoculated with organisms, as it served as the negative control. Once all of the trays were prepared, the prepared bacteria/mold suspensions were poured into the MBC inoculating trays. These were placed onto the reagent trays, and 0.01 ml inoculum was introduced into the 100 μl of reagent in each well.
This was done by dipping a sterile cotton swab into each well, and absorbing all of the liquid in the well. The swab was rolled onto a TAT agar plate ensuring that the entire swab touches the agar. Plates ware incubated at 32 degrees C. for 48 hours to 7 days, depending on the organism. Observations for growth were performed by a scoring matrix using + for a full mat, +/− for some growth, a numerical value for an actual colony count, and—for no growth.
Below are tables that contain the data obtained in Example 1. The MBC test is scored by (+) indicating a full grown mat of organisms, equivalent to the organisms in the unpreserved reagent. (+/−) indicates there is some kill evident disturbing that mat or bringing the quantities down to an almost countable level. An actual number is the actual number of colonies growing at that concentration of preservative. (−) indicates no growth found. The MBC trays were stored at room temperature for the entire test.
The materials and methods and analysis of the MBC test were the same as in Example 1.

[2] = system: creatinine biosensor (creatinine amidohydrolase, creatinine amidinohydrolase and sarcosine oxidase); assay: Effect on enzymatic activity of a creatinine biosensor (rate of O2% decrease); format: biochemical; settings: 210 μM gentamicin, FIG. 1
Experimental: In FIG. 1, the effects of various concentrations of gentamicin on the enzymatic activity of a creatinine biosensor (comprising the three enzymes creatinine amidohydrolase, creatinine amidinohydrolase and sarcosine oxidase) were determined. In FIG. 2, the effects of various concentrations of propionate on the enzymatic activity of a creatinine biosensor (comprising three enzymes) were determined.
In both instances, a decreasing rate of O2% is an indicator of enzyme activity; the faster the rate of O2% decrease, the higher enzymatic activity is.

For `Cc1cc(NS(=O)(=O)c2ccc(N)cc2)no1` [Sulfamethoxazole, sulfamethoxazole], the “MBC test growth score” value ([1]; 10% preservative, 8 hour) was “+”, the “MBC test growth score” value ([1]; 10% preservative, 24 hour) was “+” and the “MBC test growth score” value ([1]; 10% preservative, 48 hour) was “+/−”. For the same compound, the “MBC test growth score” value ([1]; 10% preservative, 72 hour) was “+”, the “MBC test growth score” value ([1]; 10% preservative, 7 day) was “+” and the “MBC test growth score” value ([1]; 10% preservative, 14 day) was “+/−”. For the same compound, the “MBC test growth score” value ([1]; 20% preservative, 8 hour) was “+”, the “MBC test growth score” value ([1]; 20% preservative, 24 hour) was “+” and the “MBC test growth score” value ([1]; 20% preservative, 48 hour) was “+/−”. The “MBC test growth score” value ([1]; 20% preservative, 72 hour) was “+/−”, the “MBC test growth score” value ([1]; 20% preservative, 7 day) was “+/−” and the “MBC test growth score” value ([1]; 20% preservative, 14 day) was 31. The “MBC test growth score” value ([1]; 30% preservative, 8 hour) was “+”, the “MBC test growth score” value ([1]; 30% preservative, 24 hour) was “+” and the “MBC test growth score” value ([1]; 30% preservative, 48 hour) was “+/−”. For the same compound, the “MBC test growth score” value ([1]; 30% preservative, 72 hour) was “+/−”, the “MBC test growth score” value ([1]; 30% preservative, 7 day) was “+/−” and the “MBC test growth score” value ([1]; 30% preservative, 14 day) was 28. The “MBC test growth score” value ([1]; 40% preservative, 8 hour) was “+”, the “MBC test growth score” value ([1]; 40% preservative, 24 hour) was “+” and the “MBC test growth score” value ([1]; 40% preservative, 48 hour) was “+/−”. For the same compound, the “MBC test growth score” value ([1]; 40% preservative, 72 hour) was “+/−”, the “MBC test growth score” value ([1]; 40% preservative, 7 day) was “+/−” and the “MBC test growth score” value ([1]; 40% preservative, 14 day) was 25. The “MBC test growth score” value ([1]; 50% preservative, 8 hour) was “+”, the “MBC test growth score” value ([1]; 50% preservative, 24 hour) was “+” and the “MBC test growth score” value ([1]; 50% preservative, 48 hour) was “+/−”. The “MBC test growth score” value ([1]; 50% preservative, 72 hour) was “+/−”, the “MBC test growth score” value ([1]; 50% preservative, 7 day) was “+/−” and the “MBC test growth score” value ([1]; 50% preservative, 14 day) was 18. The “MBC test growth score” value ([1]; 60% preservative, 8 hour) was “+”, the “MBC test growth score” value ([1]; 60% preservative, 24 hour) was “+” and the “MBC test growth score” value ([1]; 60% preservative, 48 hour) was “+/−”. The “MBC test growth score” value ([1]; 60% preservative, 72 hour) was “+/−”, the “MBC test growth score” value ([1]; 60% preservative, 7 day) was “+/−” and the “MBC test growth score” value ([1]; 70% preservative, 8 hour) was “+”. The “MBC test growth score” value ([1]; 70% preservative, 24 hour) was “+”, the “MBC test growth score” value ([1]; 70% preservative, 48 hour) was “+/−” and the “MBC test growth score” value ([1]; 70% preservative, 72 hour) was 18. The “MBC test growth score” value ([1]; 70% preservative, 7 day) was 9, the “MBC test growth score” value ([1]; 70% preservative, 14 day) was 10 and the “MBC test growth score” value ([1]; 80% preservative, 8 hour) was “+”. The “MBC test growth score” value ([1]; 80% preservative, 24 hour) was “+”, the “MBC test growth score” value ([1]; 80% preservative, 48 hour) was “+/−” and the “MBC test growth score” value ([1]; 80% preservative, 7 day) was 8. The “MBC test growth score” value ([1]; 80% preservative, 14 day) was 6, the “MBC test growth score” value ([1]; 90% preservative, 8 hour) was “+” and the “MBC test growth score” value ([1]; 90% preservative, 24 hour) was “+”. For the same compound, the “MBC test growth score” value ([1]; 90% preservative, 48 hour) was “+/−”, the “MBC test growth score” value ([1]; 90% preservative, 72 hour) was 10 and the “MBC test growth score” value ([1]; 90% preservative, 7 day) was 7. The “MBC test growth score” value ([1]; 90% preservative, 14 day) was 3, the “MBC test growth score” value ([1]; 100% preservative, 8 hour) was “+” and the “MBC test growth score” value ([1]; 100% preservative, 24 hour) was “+”. The “MBC test growth score” value ([1]; 100% preservative, 48 hour) was “+/−”, the “MBC test growth score” value ([1]; 100% preservative, 72 hour) was 7 and the “MBC test growth score” value ([1]; 100% preservative, 7 day) was 4. For the same compound, the “MBC test growth score” value ([1]; 100% preservative, 14 day) was 2.

With gentamicin the “MBC test growth score” value ([1]; 10% preservative, 8 hour) was “+”, the “MBC test growth score” value ([1]; 10% preservative, 24 hour) was “+” and the “MBC test growth score” value ([1]; 10% preservative, 48 hour) was “+/−”. For the same compound, the “MBC test growth score” value ([1]; 10% preservative, 72 hour) was “+/−”, the “MBC test growth score” value ([1]; 10% preservative, 7 day) was “+/−” and the “MBC test growth score” value ([1]; 10% preservative, 14 day) was “+/−”. For the same compound, the “MBC test growth score” value ([1]; 20% preservative, 8 hour) was “+”, the “MBC test growth score” value ([1]; 20% preservative, 24 hour) was “+” and the “MBC test growth score” value ([1]; 20% preservative, 48 hour) was “+/−”. For the same compound, the “MBC test growth score” value ([1]; 20% preservative, 72 hour) was “+/−”, the “MBC test growth score” value ([1]; 20% preservative, 7 day) was “+/−” and the “MBC test growth score” value ([1]; 20% preservative, 14 day) was “+/−”. For the same compound, the “MBC test growth score” value ([1]; 30% preservative, 8 hour) was “+”, the “MBC test growth score” value ([1]; 30% preservative, 24 hour) was “+” and the “MBC test growth score” value ([1]; 30% preservative, 48 hour) was “+/−”. The “MBC test growth score” value ([1]; 30% preservative, 72 hour) was “+/−”, the “MBC test growth score” value ([1]; 30% preservative, 7 day) was “+/−” and the “MBC test growth score” value ([1]; 30% preservative, 14 day) was “+/−”. For the same compound, the “MBC test growth score” value ([1]; 40% preservative, 8 hour) was “+”, the “MBC test growth score” value ([1]; 40% preservative, 24 hour) was “+” and the “MBC test growth score” value ([1]; 40% preservative, 48 hour) was “+/−”. For the same compound, the “MBC test growth score” value ([1]; 40% preservative, 72 hour) was “+/−”, the “MBC test growth score” value ([1]; 40% preservative, 7 day) was “+/−” and the “MBC test growth score” value ([1]; 40% preservative, 14 day) was 28. For the same compound, the “MBC test growth score” value ([1]; 50% preservative, 8 hour) was “+”, the “MBC test growth score” value ([1]; 50% preservative, 24 hour) was “+” and the “MBC test growth score” value ([1]; 50% preservative, 48 hour) was “+/−”. The “MBC test growth score” value ([1]; 50% preservative, 72 hour) was “+/−”, the “MBC test growth score” value ([1]; 50% preservative, 7 day) was “+/−” and the “MBC test growth score” value ([1]; 50% preservative, 14 day) was 25. For the same compound, the “MBC test growth score” value ([1]; 60% preservative, 8 hour) was “+”, the “MBC test growth score” value ([1]; 60% preservative, 24 hour) was “+” and the “MBC test growth score” value ([1]; 60% preservative, 48 hour) was “+/−”. The “MBC test growth score” value ([1]; 60% preservative, 72 hour) was “+/−”, the “MBC test growth score” value ([1]; 60% preservative, 7 day) was “+/−” and the “MBC test growth score” value ([1]; 60% preservative, 14 day) was 23. The “MBC test growth score” value ([1]; 70% preservative, 8 hour) was “+”, the “MBC test growth score” value ([1]; 70% preservative, 24 hour) was “+” and the “MBC test growth score” value ([1]; 70% preservative, 48 hour) was “+/−”. For the same compound, the “MBC test growth score” value ([1]; 70% preservative, 72 hour) was “+/−”, the “MBC test growth score” value ([1]; 70% preservative, 7 day) was 23 and the “MBC test growth score” value ([1]; 70% preservative, 14 day) was 18. The “MBC test growth score” value ([1]; 80% preservative, 8 hour) was “+”, the “MBC test growth score” value ([1]; 80% preservative, 24 hour) was “+” and the “MBC test growth score” value ([1]; 80% preservative, 48 hour) was “+/−”. For the same compound, the “MBC test growth score” value ([1]; 80% preservative, 72 hour) was “+/−”, the “MBC test growth score” value ([1]; 80% preservative, 7 day) was 16 and the “MBC test growth score” value ([1]; 80% preservative, 14 day) was 12. For the same compound, the “MBC test growth score” value ([1]; 90% preservative, 8 hour) was “+”, the “MBC test growth score” value ([1]; 90% preservative, 24 hour) was “+” and the “MBC test growth score” value ([1]; 90% preservative, 48 hour) was “+/−”. For the same compound, the “MBC test growth score” value ([1]; 90% preservative, 72 hour) was “+/−”, the “MBC test growth score” value ([1]; 90% preservative, 7 day) was 11 and the “MBC test growth score” value ([1]; 90% preservative, 14 day) was 9. The “MBC test growth score” value ([1]; 100% preservative, 8 hour) was “+”, the “MBC test growth score” value ([1]; 100% preservative, 24 hour) was “+” and the “MBC test growth score” value ([1]; 100% preservative, 48 hour) was “+/−”. For the same compound, the “MBC test growth score” value ([1]; 100% preservative, 72 hour) was “+/−”, the “MBC test growth score” value ([1]; 100% preservative, 7 day) was 7 and the “MBC test growth score” value ([1]; 100% preservative, 14 day) was 6. The “effect on enzymatic activity of the three enzymes in the creatinine biosensor” value [2] was “did not inactivate enzymatic activity”.
